Measurements: article PMC6017193, “Structure-Based Discovery of a Series of 5H-Pyrrolo[2,3-b]pyrazine FGFR Kinase Inhibitors” (Molecules : A Journal of Synthetic Chemistry and Natural …, 2018)

Key:
FGFR1 = target: T1, FGFR1 (Homo sapiens, UniProt P11362); assay: ELISA kinase assay, FGFR1 enzymatic activity; type: biochemical; settings: for inhibition at 0.01 µM: 0.01 μM (10 nM); for inhibition at 0.01 µM / inhibition at 0.1 µM / inhibition at 1 µM: mean of two separate experiments; for IC50: mean ± SD from two separate experiments
T1 construct: purchased Millipore
T1 sequence (P11362 22-822): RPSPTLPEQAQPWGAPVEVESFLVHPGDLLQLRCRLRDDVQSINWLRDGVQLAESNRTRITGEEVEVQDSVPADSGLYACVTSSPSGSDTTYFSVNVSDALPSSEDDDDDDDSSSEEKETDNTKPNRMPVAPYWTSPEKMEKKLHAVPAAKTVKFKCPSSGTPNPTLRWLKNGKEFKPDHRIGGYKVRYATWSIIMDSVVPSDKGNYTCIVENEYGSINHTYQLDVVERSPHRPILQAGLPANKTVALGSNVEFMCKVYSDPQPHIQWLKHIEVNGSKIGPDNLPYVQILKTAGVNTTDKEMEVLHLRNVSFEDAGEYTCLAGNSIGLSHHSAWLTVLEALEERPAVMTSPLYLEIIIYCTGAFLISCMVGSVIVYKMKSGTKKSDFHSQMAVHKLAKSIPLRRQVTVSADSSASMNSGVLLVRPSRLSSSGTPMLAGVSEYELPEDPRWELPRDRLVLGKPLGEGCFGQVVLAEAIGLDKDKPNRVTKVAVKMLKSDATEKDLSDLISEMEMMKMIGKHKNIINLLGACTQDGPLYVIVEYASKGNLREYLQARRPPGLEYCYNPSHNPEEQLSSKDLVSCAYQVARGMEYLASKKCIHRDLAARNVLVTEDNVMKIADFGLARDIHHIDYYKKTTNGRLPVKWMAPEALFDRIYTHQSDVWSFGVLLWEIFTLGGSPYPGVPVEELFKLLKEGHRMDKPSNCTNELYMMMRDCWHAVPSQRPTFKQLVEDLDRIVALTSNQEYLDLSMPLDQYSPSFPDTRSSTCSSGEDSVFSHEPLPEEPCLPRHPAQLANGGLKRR
Experimental: The effects of compounds on the activities of indicated (FGFR1 and c-Met) kinases were determined using enzyme-linked immunosorbent assays (ELISAs) with purified recombinant proteins. Briefly, 20 μg/mL poly (Glu, Tyr)4:1 (Sigma, St. Louis, MO, USA) was precoated in 96-well plates as a substrate. A 50-μL aliquot of 10 μmol/L ATP solution diluted in kinase reaction buffer (50 mmol/L HEPES (pH 7.4), 50 mmol/L MgCl2, 0.5 mmol/L MnCl2, 0.2 mmol/L Na3VO4, and 1 mmol/L DTT) was added to each well; 1 μL of various concentrations of compounds diluted in 1% DMSO (v/v) (Sigma) were then added to each reaction well. DMSO (1%, v/v) was used as the negative control. The kinase reaction was initiated by the addition of purified tyrosine kinase proteins FGFR1 (Millipore, Darmstadt, Germany) or c-Met (Millipore) diluted in 49 μL of kinase reaction buffer. After incubation for 60 min at 37 °C, the plate was washed three times with phosphate-buffered saline (PBS) containing 0.1% Tween 20 (T-PBS). Anti-phosphotyrosine (PY99) antibody (Sanra Cruz, Dallas, TX, USA) (100 μL; 1:500, diluted in 5 mg/mL bovine serum albumin (BSA) T-PBS) was then added. After a 30-min incubation at 37 °C, the plate was washed three times, and 100 μL of horseradish peroxidase-conjugated goat anti-mouse IgG (Calbiochem, Shanghai, China) (1:2000, diluted in 5 mg/mL BSA T-PBS) was added. The plate was then incubated at 37 °C for 30 min, and washed three times. A 100-μL aliquot of a solution containing 0.03% H2O2 and 2 mg/mL o-phenylenediamine in 0.1 mol/L citrate buffer (pH 5.5) was added. The reaction was terminated by the addition of 50 μL of 2 mol/L H2SO4 as the color changed, and the plate was analyzed using a multi-well spectrophotometer (SpectraMAX 190, Molecular Devices, Palo Alto, CA, USA) at 490 nm. The inhibition rate (%) was calculated using the following equation:IR = [1 − (A490/A490control)] × 100%.(1) where IR, A490, and A490control are the inhibition rate, the absorbance value of the tested compound at 490 nm, and the absorbance value of the negative control compound at 490 nm, respectively. The IC50 values were calculated from the inhibition curves in two separate experiments.

[1] = test system: KG1 leukemia cell line harboring FGFR1OP-FGFR1 fusion; assay: Cell proliferation assay in KG1 cells (SRB or MTT, 72 h); type: cell-based; settings: Homo sapiens, KG-1, mean ± SD from two separate experiments, read-out: KG1 IC50 (antiproliferation activity)
Experimental: Cell proliferation was examined in a FGFR1-translocated KG1 leukemia cell line harboring FGFR1OP-FGFR1 fusion. The original KG1 cell line was purchased from ATCC (CRL-8031), and cultured according the ATCC standard protocol. Cells were seeded in 96-well tissue culture plates. On the next day, the cells were exposed to various concentrations of compounds and further cultured for 72 h. Cell proliferation was then determined using sulforhodamine B (SRB, from Sigma-Aldrich, St Louis, MO, USA) or the thiazolyl blue tetrazolium bromide (MTT, from Sigma-Aldrich, St Louis, MO, USA) assay. The IC50 values were calculated by concentration- response curve fitting using the four-parameter method.

inhibition at 0.01 µM (FGFR1) [%] | inhibition at 0.1 µM (FGFR1) [%] | inhibition at 1 µM (FGFR1) [%] | IC50 (FGFR1) [nM] | IC50 [1] [nM] | Compound
27.9 | 71.9 | 90.7 | 15.7 ± 4.8 | 187 ± 17.2 | O=S(=O)(c1c[nH]cn1)n1ccc2ncc(-c3cn[nH]c3)nc21 [Compound 27, 5-((1H-Imidazol-4-yl)sulfonyl)-3-(1H-pyrazol-4-yl)-5H-pyrrolo[2,3-b]pyrazine]
12.5 | 63.2 | 88.8 | 15.4 ± 3 | 98.5 ± 19.1 | Cn1cnc(S(=O)(=O)n2ccc3ncc(-c4cn[nH]c4)nc32)c1 [Compound 28, 5-((1-Methyl-1H-imidazol-4-yl)sulfonyl)-3-(1H-pyrazol-4-yl)-5H-pyrrolo[2,3-b]pyrazine]
53.7 | 79.5 | 94.6 | 3 ± 0.7 | 17.4 ± 8.7 | CCn1cnc(S(=O)(=O)n2ccc3ncc(-c4cn[nH]c4)nc32)c1 [Compound 29, 5-((1-ethyl-1H-imidazol-4-yl)sulfonyl)-3-(1H-pyrazol-4-yl)-5H-pyrrolo[2,3-b]pyrazine]
